This note sets out measurements from patent publication US20120058085A1, “Deuterium Modified Benzimidazoles” (priority 2009, published 2012).

Read-outs that look alike come from different tables or passages of the source.

A short description of this data set: Evaluation of Metabolic Stability in Human Liver Microsomes. The format is in vitro ADME. The settings on record: for percentage increase in half-life in going from clemizole to the test compound, Average / percentage increase in half-life in going from clemizole to the test compound, run A / percentage increase in half-life in going from clemizole to the test compound, run B / percentage increase in half-life in going from clemizole to the test compound, run C / percentage increase in half-life in going from clemizole to the test compound, run D: HLM, relative to clemizole; for half-life: human, microsomes. The method, then: Human liver microsomes (20 mg/mL) are obtained from Xenotech, LLC (Lenexa, KS). β-nicotinamide adenine dinucleotide phosphate, reduced form (NADPH), magnesium chloride (MgCl2), and dimethyl sulfoxide (DMSO) are purchased from Sigma-Aldrich.
Determination of Metabolic Stability: 7.5 mM stock solutions of test compounds are prepared in DMSO. The 7.5 mM stock solutions are diluted to 12.5 μM in acetonitrile (ACN). The 20 mg/mL human liver microsomes are diluted to 0.625 mg/mL in 0.1 M potassium phosphate buffer, pH 7.4, containing 3 mM MgCl2. The diluted microsomes (375 μL) are added to wells of a 96-well deep-well polypropylene plate in triplicate. Ten to 40 μL of the 12.5 μM test compound is added to the microsomes and the mixture is pre-warmed for 10 minutes. Reactions are initiated by addition of 125 μL of pre-warmed NADPH solution. The final reaction volume is 0.5 mL and contains 0.5 mg/mL human liver microsomes, 0.25-1.0 μM test compound, and 2 mM NADPH in 0.1 M potassium phosphate buffer, pH 7.4, and 3 mM MgCl2. The reaction mixtures are incubated at 37° C., and 50 μL aliquots are removed at 0, 5, 10, 20, and 30 minutes and added to shallow-well 96-well plates which contain 50 μL of ice-cold ACN with internal standard to stop the reactions. The plates are stored at 4° C. for 20 minutes after which 100 μL of water is added to the wells of the plate before centrifugation to pellet precipitated proteins. Supernatants are transferred to another 96-well plate and analyzed for amounts of parent compound remaining by LC-MS/MS using an Applied Bio-systems API 4000 mass spectrometer. The same procedure is followed for the non-deuterated counterpart of the compound of Formula I and the positive control, 7-ethoxycoumarin (1 μM). Testing is done in triplicate.
Data analysis: The in vitro half-lives (t1/2s) for test compounds are calculated from the slopes of the linear regression of % parent remaining (In) vs incubation time relationship using the following formula:
in vitro t1/2=0.693/k, where k=-[slope of linear regression of % parent remaining(1n) vs incubation time]
Data analysis is performed using Microsoft Excel Software.
Four separate metabolic stability runs were performed in Human Liver Microsomes (HLM) for clemizole and for test compounds of the invention. […] The values in parenthesis in columns A through D and in the “Average” column indicate the percentage increase in half-life in going from clemizole to the test compound.
On the technique in general: Liver microsomes are vesicles of endoplasmic reticulum, rich in cytochrome P450 enzymes.

The mark [1] stands for this setting: pH 7.4, HLM 0.5 mg/mL, 2 mM NADPH, 37° C., run A, read-out: t½ (min) A.
Where [2] appears, read: pH 7.4, HLM 0.5 mg/mL, 2 mM NADPH, 37° C., run B, read-out: t½ (min) B.
[3] abbreviates: pH 7.4, HLM 0.5 mg/mL, 2 mM NADPH, 37° C., run C, read-out: t½ (min) C.
Setting [4] is: pH 7.4, HLM 0.5 mg/mL, 2 mM NADPH, 37° C., run D, read-out: t½ (min) D.
Setting [5] is: pH 7.4, HLM, average of runs A-D, read-out: Ave t½.

On to `[2H]C([2H])(c1ccc(Cl)cc1)n1c(CN2CCCC2)nc2ccccc21` [Compound 100, 1-(4-Chlorophenyl-d2-methyl)-2-(pyrrolidin-1-ylmethyl)-1H-benzo[d]imid-azole], for which the “percentage increase in half-life in going from clemizole to the test compound, Average” value (average of runs A-D) is “(+4%)”. For the same molecule, the “percentage increase in half-life in going from clemizole to the test compound, run A” value (“percentage increase in half-life … run A” below) (run A) is “(+2%)”. Also, under “run B”, the “percentage increase in half-life in going from clemizole to the test compound, run B” value (“percentage increase in half-life … run B” below) is “(+0.3%)”. For the same molecule, for the setting “run C”, the “percentage increase in half-life in going from clemizole to the test compound, run C” value (“percentage increase in half-life … run C” below) was “(+4%)”. For the same molecule, the “percentage increase in half-life in going from clemizole to the test compound, run D” value (“percentage increase in half-life … run D” below) (run D) is “(+13%)”. Also, the half-life under setting [1] was found to be 13.7 min; the half-life under setting [2] amounted to 14.1 min; the half-life under setting [3] was found to be 13.8 min; the half-life under setting [4] worked out at 13.8 min; the half-life under setting [5] came out at 13.9 min.
Regarding `[2H]C([2H])(c1nc2ccccc2n1Cc1ccc(Cl)cc1)N1CCCC1` [Compound 101, 1-(4-Chlorobenzyl)-2-(d2-(pyrrolidin-1-yl)methyl)-1H-benzo[d]imidazole], the “percentage increase in half-life … run A” value (run A) is given as “(+18%)”. Moreover, the “percentage increase in half-life … run B” value (run B) is given as “(+8%)”. Moreover, the “percentage increase in half-life … run C” value (run C) is “(+9%)”. Moreover, the “percentage increase in half-life … run D” value (run D) was “(+14%)”. In addition, the half-life by setting is: under setting [1], 15.9 min; under setting [2], 15.2 min; under setting [3], 14.4 min; under setting [4], 14 min; under setting [5], 14.9 min.
Consider `[2H]C1([2H])N(Cc2nc3ccccc3n2Cc2ccc(Cl)cc2)C([2H])([2H])C([2H])([2H])C1([2H])[2H]` [Compound 102, 1-(4-Chlorobenzyl)-2-((2,2,3,3,4,4,5,5-d8-pyrrolidin-1-yl)methyl)-1H-benzo[d]imidazole], for which, for the setting “run A”, the “percentage increase in half-life … run A” value is listed as “(+41%)”. Also, the “percentage increase in half-life … run B” value (run B) is on record as “(+38%)”. Moreover, the “percentage increase in half-life … run C” value (run C) is “(+32%)”. Moreover, the “percentage increase in half-life … run D” value (run D) is on record as “(+36%)”. For the same molecule, the half-life was found to be 18.9 min under setting [1]; 19.4 min under setting [2]; 17.6 min under setting [3]; 16.7 min under setting [4]; 18.2 min under setting [5].
Regarding `[2H]C1([2H])CCC([2H])([2H])N1Cc1nc2ccccc2n1Cc1ccc(Cl)cc1` [Compound 104], the “percentage increase in half-life … run A” value (run A) is given as “(+15%)”. Moreover, for the setting “run B”, the “percentage increase in half-life … run B” value is given as “(+16%)”. Also, the “percentage increase in half-life … run C” value (run C) was “(+17%)”. Besides, where the note is “run D”, the “percentage increase in half-life … run D” value is listed as “(+27%)”. In addition, the half-life by setting is: under setting [1], 15.5 min; under setting [2], 16.3 min; under setting [3], 15.5 min; under setting [4], 15.6 min; under setting [5], 15.7 min.
As for `[2H]C([2H])(c1nc2ccccc2n1C([2H])([2H])c1ccc(Cl)cc1)N1CCCC1` [Compound 105, 1-(4-Chlorophenyl-d2-methyl)-2-(d2-(pyrrolidin-1-yl)methyl)-1H-benzo[d]imidazole], where the note is “average of runs A-D”, the “percentage increase in half-life in going from clemizole to the test compound, Average” value is “(+6%)”. Also, under “run A”, the “percentage increase in half-life … run A” value is “(+0.9%)”. Under “run B”, the “percentage increase in half-life … run B” value was “(+6%)”. Moreover, the “percentage increase in half-life … run C” value (run C) is recorded as “(+6%)”. The “percentage increase in half-life … run D” value (run D) is “(+13%)”. For the same molecule, the half-life reads like this: under setting [1], 13.6 min; under setting [2], 14.9 min; under setting [3], 14 min; under setting [4], 13.9 min; under setting [5], 14 min.
With `[2H]C([2H])(c1ccc(Cl)cc1)n1c(CN2C([2H])([2H])C([2H])([2H])C([2H])([2H])C2([2H])[2H])nc2ccccc21` [Compound 106], where the note is “run A”, the “percentage increase in half-life … run A” value is on record as “(+21%)”. The “percentage increase in half-life … run B” value (run B) is listed as “(+22%)”. For the same molecule, the “percentage increase in half-life … run C” value (run C) was “(+22%)”. The “percentage increase in half-life … run D” value (run D) is “(+36%)”. Also, the half-life was determined as 16.2 min under setting [1]; 17.2 min under setting [2]; 16.2 min under setting [3]; 16.7 min under setting [4]; 16.6 min under setting [5].
Take `[2H]C([2H])(c1nc2ccccc2n1C([2H])([2H])c1ccc(Cl)cc1)N1C([2H])([2H])C([2H])([2H])C([2H])([2H])C1([2H])[2H]` [Compound 110, 1-(4-Chlorophenyl-d2-methyl)-2-(d2-(2,2,3,3,4,4,5,5-d8-pyrrolidin-1-yl)methyl)-1H-benzo[d]imidazole]: where the note is “run A”, the “percentage increase in half-life … run A” value is listed as “(+18%)”. Besides, for the setting “run B”, the “percentage increase in half-life … run B” value was “(+30%)”. Also, the “percentage increase in half-life … run C” value (run C) is given as “(+34%)”. The “percentage increase in half-life … run D” value (run D) was “(+38%)”. The half-life was 15.8 min under setting [1]; 18.2 min under setting [2]; 17.8 min under setting [3]; 17 min under setting [4]; 17.2 min under setting [5].
In the case of `Clc1ccc(Cn2c(CN3CCCC3)nc3ccccc32)cc1` [clemizole, 1-(p-chlorobenzyl)-2-(1-pyrrolidinylmethyl) benzimidazole, reference compound], the half-life under setting [1] was determined as 13.5 min; the half-life under setting [2] was 14 min; the half-life under setting [3] came out at 13.3 min; the half-life under setting [4] came to 12.3 min; the half-life under setting [5] is 13.3 min.
